{
  "source": "patent US11213509B2",
  "about": "“Compositions and methods for treating traumatic brain injury” (Ischemix, LLC, priority 2017, dated 2022)",
  "key": {"[1]": {"tested_on": "mitochondrial bioenergetics", "assay": "Mitochondrial respiration (respiratory control ratio) 24 hours post-CCI, focal TBI model in piglets", "type": "in vivo", "protocol": "Study Design: A blinded, placebo controlled proof of concept trial of CMX-2043 was conducted in four-week-old piglets (8-10 kg). […] Sixteen piglets (n=16) were designated into three cohorts: 1) Controlled cortical impact (CCI) at the rostral gyrus treated with a bolus of CMX-2043 (n=5), 2) CCI injured animals treated with placebo (n=5) and 3) sham animals (n=6). CMX-2043 treated animals received an intravenous loading bolus of CMX-2043 (13.4 mg/kg) 1 hour post-TBI and a 4.5 mg/kg bolus at 13 hours post-TBI. Subjects were intubated, ventilated and anesthesia maintained on isoflurane (1.0%). Buprenorphine (0.02 mg/kg IM) was administered for analgesia immediately following intubation. Monitors recorded oxygen saturation, heart rate, respiration rate, rectal temperature, and end tidal CO2. […] All piglets were sacrificed between 24-25 hours post-TBI.\nMitochondrial Respiration and ROS Production: Twenty four hours post-CCI the ipsilateral penumbra and mirrored contralateral cortex were harvested. The rate of oxygen consumption was recorded via high-resolution Oroboros Oxygraph-2k™ with a specific Substrate-Uncouple-Inhibitor-Titration Protocol (SUIT). […] Maximal reserve capacity of the electron transfer system (ETSCI+CII) was measured by titrating the protonophore carbonyl cyanide p-(trifluoro-methoxy) phenylhydrazone (FCCP). […]"}, "rat model of focal TBI": {"tested_on": "rat model of focal TBI", "assay": "Morris water maze, rat model of focal TBI (BCCI)", "type": "in vivo", "details": "for Improvement in escape latency relative to Day 1 / Morris water maze escape latency: 30 mg/kg; for Morris water maze escape latency: vs saline", "description": "BCCI TBI to the medial frontal cortex (MFC) was induced by a cortical contusion device (Custom Design & Fabrication, Inc [CDF], Richmond, Va.). This device creates a reliable contusion injury to the exposed area of the brain with a brass-tipped impounder. (Hoffman et al., 1994). Rats were anesthetized with isoflurane (5%) (Novaplus™), and 02 (300 cm^3/min), and mounted in a stereotaxic frame. Under aseptic conditions, a sagittal incision was made in the scalp and the fascia retracted to expose the cranium. Then, a 6-mm diameter trephine drill was used to open the skull immediately anterior to the bregma. TBI of the MFC was made with a 5-mm-diameter rounded brass impactor attached to a computer-controlled piston propelled electronically with following parameters: velocity=2.5 m/s; depth=3 mm; duration=100 ms). After BCCI, any cortical surface hemorrhaging was controlled and the fascia and scalp sutured. The animals were allowed to recover in a warmed recovery chamber and appropriate post-operative care was taken. Treatment was delivered 30 minutes after injury and at approximately 24 hrs after injury. Two weeks after injury, rats were tested in the Morris water maze (MWM). The MWM is a well-characterized test of spatial learning and memory in rodents. The objective of the MWM is to teach rats that there is an escape platform located somewhere in a large, water filled pool. The rats are naturally motivated to escape the pool. The rats use extra-maze visual cues to locate the position of a submerged platform over a series of trials. The MWM test was conducted beginning at day 14 after traumatic brain injury. Rats were acclimated to the test room at least 1 hour prior to testing. The MWM consists of a circular pool (160 cm diameter×50 cm height) containing water that was made opaque with non-toxic black paint in order to hide the escape platform (see FIG. 4A). The water temperature was kept at 25±1° C. The water surface was 15 cm from the rim of the pool, and the inner wall was always carefully wiped to eliminate any local cues. The pool was located in a large room with a number of extra-maze visual cues, including highly visible geometric images (squares, triangles, circles, etc.) hung on the wall, diffuse lighting, and curtains to hide the experimenter and the awaiting rats. Behavior was tracked by a video camera hanging above the pool. Video tracking software (ANY-maze) recorded and analyzed the behavior of the animal in the pool. After training, the rats were gently dried with clean paper towels and placed in a warmed holding cage for the rats to dry before being returned to their home cage. Training: During training, the rat was placed into the water facing the wall of the pool and allowed to search for the platform. If the rat found the platform within 60 seconds, the trial was stopped, and the rat was allowed to stay on the platform for 30 seconds before being moved. If the platform was not found within 60 seconds, rats were placed on the platform for 30 sec in order to allow them time to learn the position of the platform in relation of the room's visual cues. Rats were given 4 trials a day for 4 days (days 14 to 17), with a 30 second interval between trials. The starting point was randomly rotated for every rat in each trial. Probe Trial: On the fifth day (day 18 after surgery), the rats received a probe trial. The probe test consisted of placing the animal in the pool for 60 seconds without the platform and monitoring the time spent in the four quadrants of the pool (see FIG. 4B). An animal that has learned the position of the platform will spend more time searching that target quadrant of the pool. During training, a submerged hidden target platform is placed in the pool and this region is defined as the target quadrant (see FIG. 4A). During the probe trial, the platform is removed and the duration of swimming in the different quadrants is tracked by the video camera and computer. […]"}, "[2]": {"details": "day 18 following surgery, 30 mg/kg vs saline"}},
  "data": [
    {"compound": "CC(NC(=O)C(CCC(=O)O)NC(=O)CCCCC1CCSS1)C(=O)O", "note": "[CMX-2043, N—(R)-lipoyl-glutamylalanine]", "values": [
      {"measurement": "Respiratory control ratio (RCR; OXPHOS CI+CII/LEAK CI+CII)", "setting": "[1]; contralateral cortex, P=0.09 vs placebo", "value": "11.05±1.71"},
      {"measurement": "Respiratory control ratio (RCR; OXPHOS CI+CII/LEAK CI+CII)", "setting": "[1]; ipsilateral cortex, i.v. 13.4 mg/kg at 1 hour and 4.5 mg/kg at 13 hours post-TBI, p<0.05 vs placebo", "value": "11.61±2.28"},
      {"measurement": "Improvement in escape latency relative to Day 1", "setting": "rat model of focal TBI; Day 2 of training", "value": 4.9, "unit": "s"},
      {"measurement": "Improvement in escape latency relative to Day 1", "setting": "rat model of focal TBI; Day 3 of training", "value": 8.7, "unit": "s"},
      {"measurement": "Improvement in escape latency relative to Day 1", "setting": "rat model of focal TBI; Day 4 of training, significantly better than saline", "value": 24.2, "unit": "s"},
      {"measurement": "Morris water maze escape latency", "setting": "rat model of focal TBI; day 1 of training", "value": "longer latency times than saline treated animals"},
      {"measurement": "Probe trial number of entries into the platform zone", "setting": "rat model of focal TBI; [2]", "value": "did not reveal a significant difference"},
      {"measurement": "Probe trial time spent in the target quadrant", "setting": "rat model of focal TBI; [2]", "value": "did not show an overall difference"},
      {"measurement": "Morris water maze escape latency", "setting": "rat model of focal TBI; final training day", "value": "significantly faster escape latency"},
      {"measurement": "Morris water maze escape latency", "setting": "rat model of focal TBI; training days 2 and 3", "value": "no differences between groups"},
      {"measurement": "Morris water maze swim distance", "setting": "rat model of focal TBI; training, 30 mg/kg vs saline", "value": "no difference"},
      {"measurement": "Morris water maze swim speed", "setting": "rat model of focal TBI; training, 30 mg/kg vs saline", "value": "no difference"}
    ]}
  ]
}
